One experiment has as its system TFEB. Description: Cellular fractionation and western blot of nuclear/cytoplasmic TFEB. Format: cell-based. Conditions: nuclear/cytoplasmic TFEB ratio, western blot. The method, then: Cells were washed with cold PBS (ThermoFisher Scientific/Gibco, 10,010–015) and lysed in RIPA buffer (0.5% Triton X-100, 10 mM Tris/HCl, pH 8.0, 1 mM EDTA (Sigma Aldrich, E6511), 0.5 mM EGTA (Sigma Aldrich, E3889), 0.1% sodium dodecyl sulfate [SDS], 0.02% sodium deoxycholate (Sigma Aldrich, D6750), and 140 mM NaCl (Sigma Aldrich, S9625) supplemented with protease-inhibitor cocktail (Sigma Aldrich/Roche, 4,693,132,001) and phosphatase inhibitors (Roche/Sigma Aldrich, 4,906,845,001) for 30 min at 4°C. The lysates were centrifuged at 13,000 g for 15 min and the supernatants collected. Protein concentration was quantified using BCA reagent (Thermofisher Scientific, 23,252) and 4× SDS Laemmli buffer was added. The samples were boiled at 95°C for 5 min before SDS-polyacrylamide gel electrophoresis (SDS-PAGE) using Mini-PROTEAN® Precast Gels (Bio-Rad, 4,568,094). Ten micrograms of protein per lane were separated by SDS/PAGE and transferred to a PVDF membrane using the Trans-Blot Turbo Transfer System (Bio-Rad, Hercules, CA, USA). […] Nuclear and cytoplasmic fractions were assessed with a LMNA/lamin A/C antibody (Santa Cruz Biotechnology, sc-7292) or GAPDH antibody (Abcam, ab9484), respectively.
Figure S5. […] (C) The levels of nuclear/cytoplasmic TFEB were quantified and presented as a ratio. […]
(In general: A western blot detects proteins with antibodies after separation by electrophoresis.)

For another experiment, the target named is T1, SRPK1 (Homo sapiens, UniProt Q96SB4).
T1 construct: endogenous in cells; host or cells: SH-SY5Y
T1 sequence (Q96SB4 whole entry): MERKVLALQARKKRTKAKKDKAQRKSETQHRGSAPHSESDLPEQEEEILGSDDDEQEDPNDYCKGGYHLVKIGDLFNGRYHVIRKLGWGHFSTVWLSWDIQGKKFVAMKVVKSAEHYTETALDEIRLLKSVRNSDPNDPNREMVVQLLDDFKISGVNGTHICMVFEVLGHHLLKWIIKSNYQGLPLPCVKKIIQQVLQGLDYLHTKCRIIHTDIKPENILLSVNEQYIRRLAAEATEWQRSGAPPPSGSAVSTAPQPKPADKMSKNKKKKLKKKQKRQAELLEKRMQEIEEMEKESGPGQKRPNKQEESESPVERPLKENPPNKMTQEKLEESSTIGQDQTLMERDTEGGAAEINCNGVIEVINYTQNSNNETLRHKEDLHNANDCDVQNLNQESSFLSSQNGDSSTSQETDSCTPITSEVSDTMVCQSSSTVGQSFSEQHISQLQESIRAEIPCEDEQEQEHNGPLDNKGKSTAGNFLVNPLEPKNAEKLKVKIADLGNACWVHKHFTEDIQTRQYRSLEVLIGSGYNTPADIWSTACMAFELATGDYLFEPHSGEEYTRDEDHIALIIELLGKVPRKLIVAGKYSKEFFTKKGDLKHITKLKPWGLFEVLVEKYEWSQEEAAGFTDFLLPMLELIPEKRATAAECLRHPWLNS
Description: KiNativ in-cell kinase binding, SRPK1. Conditions: SH-SY5Y cells, Labeling Site Lys2. The source says: (§1) As KINOMEscan is an in vitro assay, and as different cell types have variable kinase expression profiles we sought to determine the kinase binding profile in our SH-SY5Y TFEB-relocalization cell model. […] Bound kinases were pulled down and analyzed by mass spectrometry to determine the in situ kinase binding profile for each compound.

The target of the next experiment is T2, TLK1 (Homo sapiens, UniProt Q9UKI8).
T2 construct: endogenous in cells; host or cells: SH-SY5Y
T2 sequence (Q9UKI8 whole entry): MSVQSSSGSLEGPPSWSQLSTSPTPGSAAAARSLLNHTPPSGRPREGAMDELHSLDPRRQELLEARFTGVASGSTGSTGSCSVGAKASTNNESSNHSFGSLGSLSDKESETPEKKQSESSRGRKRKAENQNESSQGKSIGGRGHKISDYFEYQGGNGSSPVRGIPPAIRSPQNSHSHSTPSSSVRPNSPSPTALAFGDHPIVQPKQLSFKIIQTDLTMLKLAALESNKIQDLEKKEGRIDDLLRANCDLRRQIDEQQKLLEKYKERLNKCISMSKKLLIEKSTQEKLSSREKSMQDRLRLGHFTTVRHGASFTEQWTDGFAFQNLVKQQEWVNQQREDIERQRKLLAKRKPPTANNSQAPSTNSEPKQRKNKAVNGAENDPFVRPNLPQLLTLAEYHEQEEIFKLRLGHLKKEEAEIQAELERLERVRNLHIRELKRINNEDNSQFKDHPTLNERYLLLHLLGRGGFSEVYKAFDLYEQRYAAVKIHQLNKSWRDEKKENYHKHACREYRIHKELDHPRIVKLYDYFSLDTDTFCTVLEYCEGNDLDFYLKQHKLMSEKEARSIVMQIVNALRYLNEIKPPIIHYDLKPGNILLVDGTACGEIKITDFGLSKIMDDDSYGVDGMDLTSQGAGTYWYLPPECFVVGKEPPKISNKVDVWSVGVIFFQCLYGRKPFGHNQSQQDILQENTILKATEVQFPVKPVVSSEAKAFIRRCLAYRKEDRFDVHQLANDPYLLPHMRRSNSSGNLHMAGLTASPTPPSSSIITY
Description: KiNativ in-cell kinase binding, TLK1. The following applies: SH-SY5Y cells, Labeling Site Lys2.
Source text: as §1

Experiment [1] deals with cellular kinases of SH-SY5Y cells (Homo sapiens, UniProt O43318). As to the kind of experiment: biochemical. The following applies: 2µM; SH-SY5Y cells; Labeling Site Lys2; DLKPPNLLLVAGGTVLK; read-out: KiNativ in-cell binding, % Inhibition, MAP3K7. Format: binding.
Sequence of cellular kinases of SH-SY5Y cells (Homo sapiens, UniProt O43318) (O43318 whole entry): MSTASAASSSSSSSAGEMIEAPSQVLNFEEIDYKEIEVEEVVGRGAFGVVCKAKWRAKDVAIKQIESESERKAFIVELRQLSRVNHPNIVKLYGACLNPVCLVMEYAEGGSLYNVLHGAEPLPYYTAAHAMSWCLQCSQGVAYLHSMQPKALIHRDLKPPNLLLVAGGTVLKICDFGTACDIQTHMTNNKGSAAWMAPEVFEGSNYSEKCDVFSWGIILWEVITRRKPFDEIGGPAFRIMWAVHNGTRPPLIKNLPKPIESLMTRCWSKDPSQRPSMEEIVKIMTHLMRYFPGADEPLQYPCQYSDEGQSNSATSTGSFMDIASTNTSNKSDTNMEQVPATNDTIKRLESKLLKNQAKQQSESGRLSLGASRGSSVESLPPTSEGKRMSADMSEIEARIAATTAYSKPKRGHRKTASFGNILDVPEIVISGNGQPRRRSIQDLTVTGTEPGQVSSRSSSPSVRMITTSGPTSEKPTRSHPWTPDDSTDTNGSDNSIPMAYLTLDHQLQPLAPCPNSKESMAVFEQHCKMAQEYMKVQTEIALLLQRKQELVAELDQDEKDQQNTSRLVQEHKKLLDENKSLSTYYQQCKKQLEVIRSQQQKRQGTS
Source text: as §1

Experiment [2] addresses T3, cellular kinases of SH-SY5Y cells (Homo sapiens, UniProt O75063).
T3 construct: endogenous in cells; host or cells: SH-SY5Y
As to the kind of experiment: biochemical. The experiment is classed as binding. Conditions: 2µM; SH-SY5Y cells; Labeling Site ATP; ETEPACADGDIMEGSVTLWLPDVWPLQKHR; read-out: KiNativ in-cell binding, % Inhibition, FAM20B.
Source text: as §1

Experiment [3] addresses cellular kinases of SH-SY5Y cells (Homo sapiens, UniProt P15056). Description: biochemical. Format: binding. The following applies: 2µM; SH-SY5Y cells; labeling site Lys2; peptide DLKSNNIFLHEDLTVK
Source text: as §1

The target in experiment [4] is cellular kinases of SH-SY5Y cells (Homo sapiens, UniProt P41240). As to the kind of experiment: biochemical. Format: binding. The following applies: 2µM, SH-SY5Y cells, read-out: KiNativ in-cell binding, % Inhibition, CSK.
Sequence of cellular kinases of SH-SY5Y cells (Homo sapiens, UniProt P41240) (P41240 whole entry): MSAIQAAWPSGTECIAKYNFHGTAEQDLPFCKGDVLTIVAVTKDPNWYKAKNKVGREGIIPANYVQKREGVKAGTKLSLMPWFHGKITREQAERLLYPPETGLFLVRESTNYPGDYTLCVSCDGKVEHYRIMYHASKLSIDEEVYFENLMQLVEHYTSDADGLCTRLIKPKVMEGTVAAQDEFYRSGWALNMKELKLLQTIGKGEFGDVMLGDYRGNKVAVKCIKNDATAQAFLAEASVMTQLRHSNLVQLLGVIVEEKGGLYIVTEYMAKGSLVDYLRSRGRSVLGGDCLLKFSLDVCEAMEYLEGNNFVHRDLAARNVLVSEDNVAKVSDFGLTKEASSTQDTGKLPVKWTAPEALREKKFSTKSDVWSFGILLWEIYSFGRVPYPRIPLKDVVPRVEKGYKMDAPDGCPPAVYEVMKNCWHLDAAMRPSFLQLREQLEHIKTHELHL
Source text: as §1

In experiment [5] the target is cellular kinases of SH-SY5Y cells (Homo sapiens, UniProt P51617). As to the kind of experiment: biochemical. Format: binding. Conditions: 2µM; SH-SY5Y cells; labeling site Lys2; peptide AIQFLHQDSPSLIHGDIKSSNVLLDER
Source text: as §1

In experiment [6] the target is cellular kinases of SH-SY5Y cells (Homo sapiens, UniProt P53350). Description: biochemical. Conditions: 2µM, SH-SY5Y cells, read-out: KiNativ in-cell binding, % Inhibition, PLK1. The experiment is classed as binding.
Sequence of cellular kinases of SH-SY5Y cells (Homo sapiens, UniProt P53350) (P53350 whole entry): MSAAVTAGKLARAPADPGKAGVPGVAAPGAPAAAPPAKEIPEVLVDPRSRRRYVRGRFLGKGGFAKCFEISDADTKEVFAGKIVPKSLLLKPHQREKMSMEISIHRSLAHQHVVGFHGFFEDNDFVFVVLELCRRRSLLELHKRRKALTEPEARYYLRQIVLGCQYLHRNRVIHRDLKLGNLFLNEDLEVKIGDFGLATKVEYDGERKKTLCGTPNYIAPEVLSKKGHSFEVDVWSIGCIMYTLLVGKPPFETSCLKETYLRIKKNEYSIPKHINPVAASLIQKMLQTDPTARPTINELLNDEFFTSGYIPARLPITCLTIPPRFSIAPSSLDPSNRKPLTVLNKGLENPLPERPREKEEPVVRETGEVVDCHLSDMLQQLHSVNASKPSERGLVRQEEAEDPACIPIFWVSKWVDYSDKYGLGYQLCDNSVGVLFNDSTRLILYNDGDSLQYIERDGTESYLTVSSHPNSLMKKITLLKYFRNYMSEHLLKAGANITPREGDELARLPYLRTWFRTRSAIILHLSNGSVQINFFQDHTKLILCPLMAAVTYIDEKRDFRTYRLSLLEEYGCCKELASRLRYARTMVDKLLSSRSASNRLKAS
Source text: as §1

The target in experiment [7] is T4, cellular kinases of SH-SY5Y cells (Homo sapiens, UniProt Q12851).
T4 construct: endogenous in cells; host or cells: SH-SY5Y
Description: biochemical. Format: binding. Conditions: 2µM; SH-SY5Y cells; Labeling Site Lys2; DIKGANLLLTLQGDVK; read-out: KiNativ in-cell binding, % Inhibition, GCK.
Source text: as §1

In experiment [8] the target is T5, cellular kinases of SH-SY5Y cells (Homo sapiens, UniProt Q58A45).
T5 construct: endogenous in cells; host or cells: SH-SY5Y
T5 sequence (Q58A45 whole entry): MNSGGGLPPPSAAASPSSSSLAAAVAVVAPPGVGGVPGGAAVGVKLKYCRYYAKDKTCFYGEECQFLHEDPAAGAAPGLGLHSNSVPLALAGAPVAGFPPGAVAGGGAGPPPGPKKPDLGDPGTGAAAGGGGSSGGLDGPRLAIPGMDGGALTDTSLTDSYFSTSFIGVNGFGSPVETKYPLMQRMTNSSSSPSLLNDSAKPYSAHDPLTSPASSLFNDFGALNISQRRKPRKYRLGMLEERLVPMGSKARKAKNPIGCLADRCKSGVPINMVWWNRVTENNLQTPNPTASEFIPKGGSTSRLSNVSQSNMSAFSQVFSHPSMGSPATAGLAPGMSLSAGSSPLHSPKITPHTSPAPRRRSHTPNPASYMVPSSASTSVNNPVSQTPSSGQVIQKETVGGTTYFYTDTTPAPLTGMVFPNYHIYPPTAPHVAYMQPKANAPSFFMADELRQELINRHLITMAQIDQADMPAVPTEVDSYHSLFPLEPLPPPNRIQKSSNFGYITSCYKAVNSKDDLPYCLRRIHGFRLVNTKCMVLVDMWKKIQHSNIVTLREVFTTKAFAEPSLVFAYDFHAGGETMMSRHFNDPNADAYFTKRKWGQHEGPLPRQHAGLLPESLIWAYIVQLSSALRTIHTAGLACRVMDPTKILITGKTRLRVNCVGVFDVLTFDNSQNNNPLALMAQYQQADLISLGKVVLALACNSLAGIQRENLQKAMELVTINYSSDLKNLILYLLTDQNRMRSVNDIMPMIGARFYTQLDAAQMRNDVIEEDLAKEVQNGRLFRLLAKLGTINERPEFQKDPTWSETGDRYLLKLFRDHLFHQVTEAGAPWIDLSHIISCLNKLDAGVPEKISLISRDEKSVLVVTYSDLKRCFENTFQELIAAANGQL
Description: biochemical. The experiment is classed as binding. The following applies: 2µM, SH-SY5Y cells, labeling site ATP.
Source text: as §1

In experiment [9] the target is cellular kinases of SH-SY5Y cells (Homo sapiens, UniProt Q96RR4). As to the kind of experiment: biochemical. The experiment is classed as binding. Conditions: 2µM, SH-SY5Y cells.
Sequence of cellular kinases of SH-SY5Y cells (Homo sapiens, UniProt Q96RR4) (Q96RR4 whole entry): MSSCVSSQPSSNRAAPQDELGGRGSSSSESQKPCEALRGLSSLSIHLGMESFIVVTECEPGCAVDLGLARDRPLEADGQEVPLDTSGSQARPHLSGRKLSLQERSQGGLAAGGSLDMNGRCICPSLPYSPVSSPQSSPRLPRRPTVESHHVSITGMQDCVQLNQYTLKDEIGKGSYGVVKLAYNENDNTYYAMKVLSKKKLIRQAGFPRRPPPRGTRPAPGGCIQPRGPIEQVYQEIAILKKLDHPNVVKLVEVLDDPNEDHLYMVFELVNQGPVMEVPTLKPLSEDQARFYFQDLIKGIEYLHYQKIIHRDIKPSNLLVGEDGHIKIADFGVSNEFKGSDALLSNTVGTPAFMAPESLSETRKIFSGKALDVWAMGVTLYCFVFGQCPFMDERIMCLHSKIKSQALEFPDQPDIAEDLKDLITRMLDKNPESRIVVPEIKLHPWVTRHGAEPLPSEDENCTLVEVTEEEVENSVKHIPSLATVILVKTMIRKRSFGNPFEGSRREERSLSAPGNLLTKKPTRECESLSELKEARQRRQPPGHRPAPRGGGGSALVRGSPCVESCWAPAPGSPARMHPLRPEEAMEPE
Source text: as §1

In another experiment the target is STK10/LOK (Homo sapiens, UniProt O94804). Format: binding.

Where two headings read alike, the source gives them in different places.

T3 sequence (O75063 whole entry): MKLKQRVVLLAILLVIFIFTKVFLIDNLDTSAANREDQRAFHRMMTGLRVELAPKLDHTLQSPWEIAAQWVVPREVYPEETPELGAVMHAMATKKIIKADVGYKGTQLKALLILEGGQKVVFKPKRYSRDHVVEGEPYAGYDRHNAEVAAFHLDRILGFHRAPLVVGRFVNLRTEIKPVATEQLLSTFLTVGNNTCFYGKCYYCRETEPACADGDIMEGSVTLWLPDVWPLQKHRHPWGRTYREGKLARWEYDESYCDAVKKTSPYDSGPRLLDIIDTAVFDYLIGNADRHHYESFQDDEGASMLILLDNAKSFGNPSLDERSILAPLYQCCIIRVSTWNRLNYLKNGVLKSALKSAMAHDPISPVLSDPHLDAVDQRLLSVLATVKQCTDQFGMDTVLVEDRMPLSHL

By inhibition is commonly meant the relative decrease from the control value, in per cent. Turning to `Cc1cccc(-c2nc(Nc3ccc4ncsc4c3)c3ccccc3n2)n1` [NK140], the “Translocation of TFEB to the nucleus, cellular fractionation (in words)” value with TFEB is “increased translocation of TFEB to the nucleus”. Besides, the inhibition at 2 µM at SRPK1 was 67.9%; on TLK1, 48.9%; in experiment [1], 8.7%; in experiment [2] it was -39.2%; in experiment [4] (Labeling Site Activation Loop, VSDFGLTKEASSTQDTGKLPVK), 21.6%; in experiment [4] (Labeling Site Lys1, VAVKCIK) it was 4.7%. For the same compound, the inhibition at 2 µM was 26% in [6] (Labeling Site Lys1, CFEISDADTKEVFAGKIVPK); 9% in experiment [6] (Labeling Site Lys2, DLKLGNLFLNEDLEVK); 11.6% in experiment [7]; -64% in [9] (Labeling Site Lys1, LAYNENDNTYYAMKVLSK, read-out: KiNativ in-cell binding, % Inhibition, CaMKK2). The “KiNativ in-cell binding, BRAF, BRAF V600E” value in experiment [3] is listed as -25.8. In addition, the “KiNativ in-cell binding, IRAK1” value in experiment [5] is listed as -26.5. For the same compound, the “KiNativ in-cell binding, PAN3” value is -119.6 in experiment [8] (peptide IQKSSNFGYITSCYK) and -99.0 in [8] (peptide VMDPTKILITGK). Besides, the “KiNativ in-cell binding, CaMKK2” value in experiment [9] (labeling site Lys2, peptide DIKPSNLLVGEDGHIK) is listed as -31.8.
As for `Cc1cccc(-c2nc(N(C)c3ccc4ncsc4c3)c3ccccc3n2)n1` [NK-161], the “KINOMEscan STK10/LOK” value on STK10/LOK came to 19.

For the origin of these results see PMC9851200, “Multiparameter phenotypic screening for endogenous TFEB and TFE3 translocation identifies novel chemical series modulating lysosome function” (Autophagy, 2022).
